≈ marks a conversion by molar mass, not a printed value.
What was measured:
physchem = conditions: for solubility: oil or lipid
Procedure: After combining of pre-weighed amounts of components they were gently triturated at room temperature (20-22° C.) using a stainless steel spatula until liquid phase is formed.

[1] = Water solubility of Lorazepam in saline; conditions: saline or isotonic
PTZ induced seizures = experiment: Timed intravenous PTZ infusion test (ivPTZ); format: in vivo, mice; conditions: Lorazepam 2.5 mg/kg (Graph 5)
Source text: For investigation of anti-seizure activity of invented formulations, a timed intravenous PTZ infusion test was employed.
The technique of timed i.v. PTZ (pentylenetetrazole) infusion test (ivPTZ) is a simple, reproducible and fast method for assessment of onset, peak, duration and potency of various anticonvulsants and proconvulsants in animals. This test provides an extremely sensitive parametric method for assessing seizure threshold in individual animals and a quantifiable endpoint can be obtained with a minimal number of animals. Different seizure types can be chosen as endpoint in this test. Usually, the first seizure occurring during the PTZ infusion is a myoclonic twitch, followed by clonic and, later, tonic seizures. […]
During the infusion, mice are observed for the onset of different types of seizures. The time latencies from the start of infusion to the appearance of the first clonus (characterized by rapid involuntary rhythmic contraction and relaxation of limbs), lasting longer than 5 seconds, are recorded. […]
The infusion of PTZ will be terminated at 2 min, in case of non-appearance of clonic seizures. For such animals, the dose of PTZ in mg/kg infused during the course of 2 min is calculated as the threshold dose.
The threshold doses of PTZ producing clonic seizures are calculated (in mg/kg) using the following formula: […]

[2] = intranasal, human patients, anti-seizure activity; cited from earlier work

O=C1Nc2ccc(Cl)cc2C(c2ccccc2Cl)=NC1O (stereo not drawn) [Lorazepam]
solubility (physchem; Lorazepam solubility in MCT with 5% Menthol, MCT oil + 5% Menthol by weight): 5500 µg/mL | solubility (physchem; Lorazepam solubility in MCT with 8% Menthol, MCT oil + 8% Menthol): 6800 µg/mL | solubility (physchem; Solubility in capric/caprylic triglycerides (MCT oil), pure MCT oil, RT): 4300 µg/mL (≈ 13.4 mM) | solubility (physchem; Solubility of Lorazepam in peppermint oil, peppermint oil containing about 45% of menthol): 38900 µg/mL (≈ 121 mM) | Increase of Lorazepam solubility, MCT with 5% Menthol (physchem; versus pure MCT oil): 28% | Increase of Lorazepam solubility, MCT with 8% Menthol (physchem; versus pure MCT oil): ~60% | solubility [1]: ~27 µg/mL (≈ 0.0841 mM) | Time to maximal protection (PTZ induced seizures): approximately 5 minutes

Cc1ncc2n1-c1ccc(Cl)cc1C(c1ccccc1F)=NC2 [Midazolam]
Onset of action [2]: approximately 10 minutes

From US20160000702A1, “PHARMACEUTICAL COMPOSITION FOR ENHANCED TRANSMUCOSAL ADMINSTRATION OF BENZODIAZEPINES” (EASTGATE PHARMACEUTICALS INC., priority 2013, published 2016)
